Reference: US10954219B2, “1,3-benzodioxole derivative” (DAIICHI SANKYO COMPANY, LIMITED, priority 2014, dated 2021)

Tests used:
[1] = tested on: Intracellular H3K27me3 in HCT116 cells; assay: Intracellular H3K27me3 inhibitory activity evaluation; format: cell-based; settings: Homo sapiens, HCT-116, 72 h, 3 days, AlphaLISA, read-out: Test Example 3 H3K27me3 inhibition (HCT116) IC50
Method: The HCT116 cells were purchased from American Type Culture Collection (ATCC). […] Intracellular H3K27me3 was quantified using AlphaLISA H3K27me3 Cellular Detection Kit (PerkinElmer, Inc., #AL722F). The cells thus cultured in each well were washed with 100 μL of PBS. Cell-Histone Lysis buffer diluted 6-fold with PBS was added thereto at 80 μL/well, and the plate was then incubated at room temperature for 15 minutes while shaken. Then, Cell-Histone Extraction buffer was added thereto at 40 μL/well, and the plate was incubated at room temperature for 10 minutes while shaken. […] An AlphaLISA anti-H3K27me3 Acceptor beads/Biotinylated Antibody anti-Histone H3 (C-ter) mixed solution was added thereto at 3.3 μL/well, and the plate was incubated at room temperature for 60 minutes. Then, Streptavidin (SA)-coated Donor beads were added thereto at 3.3 μL/well, and the plate was incubated at room temperature for 30 minutes with the plate shielded from light.

PRC2-EZH1 (WT EZH1) = PRC2-EZH1 (WT EZH1) (Homo sapiens, UniProt Q92800); assay: EZH1 methyltransferase inhibitory activity evaluation
Method: EZH1 Methyltransferase Inhibitory Activity Evaluation
(§1) Then, the residual radioactivity was measured using TopCount NXT HTS (PerkinElmer, Inc., model C384V01).

PRC2-EZH2 (WT EZH2) = target: T1, PRC2-EZH2 (WT EZH2) (Homo sapiens, UniProt Q15910); assay: EZH2 methyltransferase inhibitory activity evaluation; format: biochemical; settings: PRC2-EZH2, biotin-H3 peptide, 3H-SAM, 2 hours
T1 construct: made in house
T1 sequence (Q15910 whole entry): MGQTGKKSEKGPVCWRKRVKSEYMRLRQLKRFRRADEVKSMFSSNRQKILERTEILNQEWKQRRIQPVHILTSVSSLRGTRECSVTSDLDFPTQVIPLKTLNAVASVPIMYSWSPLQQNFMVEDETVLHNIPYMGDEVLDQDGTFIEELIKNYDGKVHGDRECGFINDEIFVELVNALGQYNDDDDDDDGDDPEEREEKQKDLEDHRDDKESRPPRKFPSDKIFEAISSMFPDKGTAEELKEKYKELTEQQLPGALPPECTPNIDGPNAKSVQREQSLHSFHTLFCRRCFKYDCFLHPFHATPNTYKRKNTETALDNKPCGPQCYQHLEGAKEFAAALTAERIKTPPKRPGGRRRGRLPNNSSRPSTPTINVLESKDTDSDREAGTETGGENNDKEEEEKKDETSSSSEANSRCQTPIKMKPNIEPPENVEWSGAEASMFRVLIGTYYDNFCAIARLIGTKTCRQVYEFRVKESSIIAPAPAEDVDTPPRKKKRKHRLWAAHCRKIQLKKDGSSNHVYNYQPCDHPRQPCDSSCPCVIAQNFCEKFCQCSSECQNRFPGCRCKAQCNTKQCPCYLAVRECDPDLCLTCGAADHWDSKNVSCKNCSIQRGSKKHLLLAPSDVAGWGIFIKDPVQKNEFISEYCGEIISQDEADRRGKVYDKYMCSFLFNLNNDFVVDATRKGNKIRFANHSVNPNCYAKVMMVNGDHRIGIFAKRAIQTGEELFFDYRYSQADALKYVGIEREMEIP
T1 sequence (O75530 whole entry partner): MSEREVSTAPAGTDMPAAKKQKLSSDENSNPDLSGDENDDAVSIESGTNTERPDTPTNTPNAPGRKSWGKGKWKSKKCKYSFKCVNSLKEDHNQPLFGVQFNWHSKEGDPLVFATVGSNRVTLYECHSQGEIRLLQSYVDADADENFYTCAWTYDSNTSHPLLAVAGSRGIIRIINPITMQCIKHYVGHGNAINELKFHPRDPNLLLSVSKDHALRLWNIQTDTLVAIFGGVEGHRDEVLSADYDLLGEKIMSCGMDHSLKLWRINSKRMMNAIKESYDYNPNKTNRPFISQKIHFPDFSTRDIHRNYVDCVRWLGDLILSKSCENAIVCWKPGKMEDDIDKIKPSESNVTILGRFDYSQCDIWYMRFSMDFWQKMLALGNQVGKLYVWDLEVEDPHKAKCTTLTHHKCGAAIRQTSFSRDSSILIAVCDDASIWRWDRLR
T1 sequence (Q15022 whole entry partner): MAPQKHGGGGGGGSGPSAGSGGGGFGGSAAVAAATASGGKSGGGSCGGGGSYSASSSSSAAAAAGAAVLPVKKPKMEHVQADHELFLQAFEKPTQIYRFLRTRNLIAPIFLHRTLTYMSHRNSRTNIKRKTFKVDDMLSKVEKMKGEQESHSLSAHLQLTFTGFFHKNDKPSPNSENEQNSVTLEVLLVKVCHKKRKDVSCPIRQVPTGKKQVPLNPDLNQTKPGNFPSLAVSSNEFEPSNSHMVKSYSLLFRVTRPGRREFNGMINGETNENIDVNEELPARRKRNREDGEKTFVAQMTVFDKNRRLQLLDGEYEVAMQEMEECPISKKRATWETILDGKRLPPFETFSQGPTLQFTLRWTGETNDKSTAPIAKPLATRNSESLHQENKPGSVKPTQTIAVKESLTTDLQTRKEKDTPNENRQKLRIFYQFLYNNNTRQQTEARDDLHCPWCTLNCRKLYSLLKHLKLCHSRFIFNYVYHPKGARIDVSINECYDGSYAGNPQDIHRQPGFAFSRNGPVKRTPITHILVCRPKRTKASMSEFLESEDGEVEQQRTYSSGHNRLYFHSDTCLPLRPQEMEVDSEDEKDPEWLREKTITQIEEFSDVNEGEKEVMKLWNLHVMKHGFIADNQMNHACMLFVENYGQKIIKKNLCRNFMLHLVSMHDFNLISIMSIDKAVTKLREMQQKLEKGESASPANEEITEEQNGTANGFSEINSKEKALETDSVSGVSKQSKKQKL
Method: EZH2 Methyltransferase Inhibitory Activity Evaluation
as §1

Chain of PRC2-EZH1 (WT EZH1) (Q92800 whole entry): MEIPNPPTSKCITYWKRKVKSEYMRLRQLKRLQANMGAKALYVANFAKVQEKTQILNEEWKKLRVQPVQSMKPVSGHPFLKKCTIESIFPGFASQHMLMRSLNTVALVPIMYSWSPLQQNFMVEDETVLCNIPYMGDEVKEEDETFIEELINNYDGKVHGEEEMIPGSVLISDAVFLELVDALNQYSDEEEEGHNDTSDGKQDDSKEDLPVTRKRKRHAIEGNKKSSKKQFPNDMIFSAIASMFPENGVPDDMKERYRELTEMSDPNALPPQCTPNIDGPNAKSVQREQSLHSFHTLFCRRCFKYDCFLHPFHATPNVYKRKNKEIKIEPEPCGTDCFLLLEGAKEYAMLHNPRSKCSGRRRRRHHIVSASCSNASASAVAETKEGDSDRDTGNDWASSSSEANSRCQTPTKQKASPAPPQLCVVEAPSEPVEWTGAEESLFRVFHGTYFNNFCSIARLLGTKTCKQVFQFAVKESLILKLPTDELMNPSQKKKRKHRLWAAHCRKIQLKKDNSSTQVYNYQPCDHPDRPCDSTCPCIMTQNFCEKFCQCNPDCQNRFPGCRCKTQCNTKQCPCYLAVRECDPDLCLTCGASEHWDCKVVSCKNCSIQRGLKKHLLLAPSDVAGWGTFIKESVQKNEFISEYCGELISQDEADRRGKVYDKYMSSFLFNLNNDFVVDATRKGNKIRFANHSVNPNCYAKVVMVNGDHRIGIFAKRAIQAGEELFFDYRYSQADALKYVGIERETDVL
Chain of PRC2-EZH1 (WT EZH1) (O75530 whole entry partner): as the sequence (O75530 whole entry partner) above
Chain of PRC2-EZH1 (WT EZH1) (Q15022 whole entry partner): as the sequence (Q15022 whole entry partner) above
Chain of PRC2-EZH1 (WT EZH1) (Q09028 whole entry partner): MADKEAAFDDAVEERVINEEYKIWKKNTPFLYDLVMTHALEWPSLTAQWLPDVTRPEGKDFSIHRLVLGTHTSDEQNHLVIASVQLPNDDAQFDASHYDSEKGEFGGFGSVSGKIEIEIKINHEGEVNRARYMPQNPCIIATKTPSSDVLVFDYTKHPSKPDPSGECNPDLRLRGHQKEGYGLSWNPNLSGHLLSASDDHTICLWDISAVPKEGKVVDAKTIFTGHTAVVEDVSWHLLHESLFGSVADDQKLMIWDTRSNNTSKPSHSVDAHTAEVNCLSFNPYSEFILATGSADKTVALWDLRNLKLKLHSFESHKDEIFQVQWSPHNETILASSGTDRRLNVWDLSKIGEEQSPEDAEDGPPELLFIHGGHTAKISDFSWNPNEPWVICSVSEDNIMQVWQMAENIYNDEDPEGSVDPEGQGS
Chain of PRC2-EZH1 (WT EZH1) (Q6ZN18 whole entry partner): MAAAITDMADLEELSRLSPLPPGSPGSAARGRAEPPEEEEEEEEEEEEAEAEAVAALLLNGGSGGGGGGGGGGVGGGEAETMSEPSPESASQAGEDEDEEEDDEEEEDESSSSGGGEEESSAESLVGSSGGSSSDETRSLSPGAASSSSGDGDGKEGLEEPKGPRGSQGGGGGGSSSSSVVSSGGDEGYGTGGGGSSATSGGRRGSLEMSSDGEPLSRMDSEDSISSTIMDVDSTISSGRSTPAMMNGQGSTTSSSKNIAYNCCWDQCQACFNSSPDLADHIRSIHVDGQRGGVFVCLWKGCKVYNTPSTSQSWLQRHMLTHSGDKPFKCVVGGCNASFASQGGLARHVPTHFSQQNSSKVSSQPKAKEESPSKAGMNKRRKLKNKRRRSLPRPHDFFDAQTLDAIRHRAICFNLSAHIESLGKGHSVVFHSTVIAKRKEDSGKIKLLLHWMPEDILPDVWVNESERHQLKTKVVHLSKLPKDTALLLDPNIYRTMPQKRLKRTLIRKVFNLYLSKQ

Cc1cc(C)c(CNC(=O)c2cc(Br)c3c(c2C)OC(C)([C@H]2CC[C@H](N)CC2)O3)c(=O)[nH]1 (relative stereo) [Example 13, 2-(trans-4-Aminocyclohexyl)-7-bromo-N-[(4,6-dimethyl-2-oxo-1,2-dihydropyridin-3-yl)methyl]-2,4-dimethyl-1,3-benzodioxole-5-carboxamide]
IC50 [1]: 5.9 nM | IC50 (PRC2-EZH1 (WT EZH1)): 21 nM | IC50 (PRC2-EZH2 (WT EZH2)): 16 nM

COc1cc(C)[nH]c(=O)c1CNC(=O)c1cc(Br)c2c(c1C)OC(C)([C@H]1CC[C@H](N(C)C)CC1)O2 (relative stereo) [Example 16, 7-Bromo-2-[trans-4-(dimethylamino)cyclohexyl]-N-[(4-methoxy-6-methyl-2-oxo-1,2-dihydropyridin-3-yl)methyl]-2,4-dimethyl-1,3-benzodioxole-5-carboxamide]
IC50 [1]: 1.4 nM | IC50 (PRC2-EZH1 (WT EZH1)): 9.4 nM | IC50 (PRC2-EZH2 (WT EZH2)): 12 nM

CCc1cc(C)[nH]c(=O)c1CNC(=O)c1cc(Br)c2c(c1C)OC(C)([C@H]1CC[C@H](N(C)C)CC1)O2 (relative stereo) [Example 17, 7-Bromo-2-[trans-4-(dimethylamino)cyclohexyl]-N-[(4-ethyl-6-methyl-2-oxo-1,2-dihydropyridin-3-yl)methyl]-2,4-dimethyl-1,3-benzodioxole-5-carboxamide]
IC50 [1]: 1.2 nM | IC50 (PRC2-EZH1 (WT EZH1)): 17 nM | IC50 (PRC2-EZH2 (WT EZH2)): 23 nM

CCCc1cc(C)[nH]c(=O)c1CNC(=O)c1cc(Br)c2c(c1C)OC(C)([C@H]1CC[C@H](N(C)C)CC1)O2 (relative stereo) [Example 18, 7-Bromo-2-[trans-4-(dimethylamino)cyclohexyl]-2,4-dimethyl-N-[(6-methyl-2-oxo-4-propyl-1,2-dihydropyridin-3-yl)methyl]-1,3-benzodioxole-5-carboxamide]
IC50 [1]: 5.8 nM | IC50 (PRC2-EZH1 (WT EZH1)): 19 nM | IC50 (PRC2-EZH2 (WT EZH2)): 23 nM

CCN[C@H]1CC[C@H](C2(C)Oc3c(Br)cc(C(=O)NCc4c(C)cc(C)[nH]c4=O)c(C)c3O2)CC1 (relative stereo) [Example 19, 7-Bromo-N-[(4,6-dimethyl-2-oxo-1,2-dihydropyridin-3-yl)methyl]-2-[trans-4-(ethylamino)cyclohexyl]-2,4-dimethyl-1,3-benzodioxole-5-carboxamide]
IC50 [1]: 11 nM | IC50 (PRC2-EZH1 (WT EZH1)): 28 nM | IC50 (PRC2-EZH2 (WT EZH2)): 25 nM

CCN(C)[C@H]1CC[C@H](C2(C)Oc3c(Br)cc(C(=O)NCc4c(C)cc(C)[nH]c4=O)c(C)c3O2)CC1 (relative stereo) [Example 20, 7-Bromo-N-[(4,6-dimethyl-2-oxo-1,2-dihydropyridin-3-yl)methyl]-2-[trans-4-[N-ethyl(N-methyl)amino]cyclohexyl]-2,4-dimethyl-1,3-benzodioxole-5-carboxamide]
IC50 [1]: 2.8 nM | IC50 (PRC2-EZH1 (WT EZH1)): 23 nM | IC50 (PRC2-EZH2 (WT EZH2)): 17 nM

CCN(CC)[C@H]1CC[C@H](C2(C)Oc3c(Br)cc(C(=O)NCc4c(C)cc(C)[nH]c4=O)c(C)c3O2)CC1 (relative stereo) [Example 21, 7-Bromo-2-[trans-4-(diethylamino)cyclohexyl]-N-[(4,6-dimethyl-2-oxo-1,2-dihydropyridin-3-yl)methyl]-2,4-dimethyl-1,3-benzodioxole-5-carboxamide]
IC50 [1]: 10 nM | IC50 (PRC2-EZH1 (WT EZH1)): 60 nM | IC50 (PRC2-EZH2 (WT EZH2)): 18 nM

Cc1cc(C)c(CNC(=O)c2ccc3c(c2C)OC(C)([C@H]2CC[C@H](N(C)C)CC2)O3)c(=O)[nH]1 (relative stereo) [Example 23, 2-[trans-4-(Dimethylamino)cyclohexyl]-N-[(4,6-dimethyl-2-oxo-1,2-dihydropyridin-3-yl)methyl]-2,4-dimethyl-1,3-benzodioxole-5-carboxamide]
IC50 [1]: 2.8 nM | IC50 (PRC2-EZH1 (WT EZH1)): 4.1 nM | IC50 (PRC2-EZH2 (WT EZH2)): 5.6 nM

Cc1cc(C)c(CNC(=O)c2cc(Br)c3c(c2C)OC(C)([C@H]2CC[C@H](CN(C)C)CC2)O3)c(=O)[nH]1 (relative stereo) [Example 24, 7-Bromo-2-[trans-4-[(dimethylamino)methyl]cyclohexyl]-N-[(4,6-dimethyl-2-oxo-1,2-dihydropyridin-3-yl)methyl]-2,4-dimethyl-1,3-benzodioxole-5-carboxamide]
IC50 [1]: 19 nM | IC50 (PRC2-EZH1 (WT EZH1)): 140 nM | IC50 (PRC2-EZH2 (WT EZH2)): 12 nM

Cc1cc(C)c(CNC(=O)c2cc(Br)c3c(c2C)OC(C)(C[C@H]2CC[C@@H](N(C)C)CC2)O3)c(=O)[nH]1 (relative stereo) [Example 27, 7-Bromo-2-[[cis-4-(dimethylamino)cyclohexyl]methyl]-N-[(4,6-dimethyl-2-oxo-1,2-dihydropyridin-3-yl)methyl]-2,4-dimethyl-1,3-benzodioxole-5-carboxamide]
IC50 [1]: 3.8 nM | IC50 (PRC2-EZH1 (WT EZH1)): 23 nM | IC50 (PRC2-EZH2 (WT EZH2)): 22 nM

Cc1cc(C)c(CNC(=O)c2cc(Br)c3c(c2C)OC(C)(C[C@H]2CC[C@H](N(C)C)CC2)O3)c(=O)[nH]1 (relative stereo) [Example 28, 7-Bromo-2-[[trans-4-(dimethylamino)cyclohexyl]methyl]-N-[(4,6-dimethyl-2-oxo-1,2-dihydropyridin-3-yl)methyl]-2,4-dimethyl-1,3-benzodioxole-5-carboxamide]
IC50 [1]: 14 nM | IC50 (PRC2-EZH1 (WT EZH1)): 78 nM | IC50 (PRC2-EZH2 (WT EZH2)): 20 nM

CN[C@H]1CC[C@H](C2(C)Oc3c(Cl)cc(C(=O)NCc4c(C)cc(C)[nH]c4=O)c(C)c3O2)CC1 (relative stereo) [Example 32, 7-Chloro-N-[(4,6-dimethyl-2-oxo-1,2-dihydropyridin-3-yl)methyl]-2,4-dimethyl-2-[trans-4-(methylamino)cyclohexyl]-1,3-benzodioxole-5-carboxamide]
IC50 [1]: 4.8 nM | IC50 (PRC2-EZH1 (WT EZH1)): 30 nM | IC50 (PRC2-EZH2 (WT EZH2)): 17 nM

Cc1cc(C)c(CNC(=O)c2cc(Cl)c3c(c2C)OC(C)([C@H]2CC[C@H](N(C)C=O)CC2)O3)c(=O)[nH]1 (relative stereo) [Example 33, 7-Chloro-N-[(4,6-dimethyl-2-oxo-1,2-dihydropyridin-3-yl)methyl]-2-[trans-4-[formyl(methyl)amino]cyclohexyl]-2,4-dimethyl-1,3-benzodioxole-5-carboxamide]
IC50 [1]: 14 nM | IC50 (PRC2-EZH1 (WT EZH1)): 260 nM | IC50 (PRC2-EZH2 (WT EZH2)): 28 nM

COc1cc(C)[nH]c(=O)c1CNC(=O)c1cc(Cl)c2c(c1C)OC(C)([C@H]1CC[C@H](N(C)C)CC1)O2 (relative stereo) [Example 36, 7-Chloro-2-[trans-4-(dimethylamino)cyclohexyl]-N-[(4-methoxy-6-methyl-2-oxo-1,2-dihydropyridin-3-yl)methyl]-2,4-dimethyl-1,3-benzodioxole-5-carboxamide]
IC50 [1]: 1.6 nM | IC50 (PRC2-EZH1 (WT EZH1)): 13 nM | IC50 (PRC2-EZH2 (WT EZH2)): 13 nM

CCc1cc(C)[nH]c(=O)c1CNC(=O)c1cc(Cl)c2c(c1C)OC(C)([C@H]1CC[C@H](N(C)C)CC1)O2 (relative stereo) [Example 37, 7-Chloro-2-[trans-4-(dimethylamino)cyclohexyl]-N-[(4-ethyl-6-methyl-2-oxo-1,2-dihydropyridin-3-yl)methyl]-2,4-dimethyl-1,3-benzodioxole-5-carboxamide]
IC50 [1]: 1.6 nM | IC50 (PRC2-EZH1 (WT EZH1)): 28 nM | IC50 (PRC2-EZH2 (WT EZH2)): 19 nM

Cc1cc(C)c(CNC(=O)c2cc(Br)c3c(c2C)OC(C)([C@H]2CC[C@@H](N(C)C)CC2)O3)c(=O)[nH]1 (relative stereo) [Example 41, 7-Bromo-2-[cis-4-(dimethylamino)cyclohexyl]-N-[(4,6-dimethyl-2-oxo-1,2-dihydropyridin-3-yl)methyl]-2,4-dimethyl-1,3-benzodioxole-5-carboxamide]
IC50 [1]: 11 nM

Cc1cc(C)c(CNC(=O)c2cc(F)c3c(c2C)OC(C)([C@H]2CC[C@H](N(C)C)CC2)O3)c(=O)[nH]1 (relative stereo) [Example 46, 2-[trans-4-(Dimethylamino)cyclohexyl]-N-[(4,6-dimethyl-2-oxo-1,2-dihydropyridin-3-yl)methyl]-7-fluoro-2,4-dimethyl-1,3-benzodioxole-5-carboxamide]
IC50 [1]: 3.4 nM | IC50 (PRC2-EZH1 (WT EZH1)): 72 nM | IC50 (PRC2-EZH2 (WT EZH2)): 6.7 nM

Cc1cc(C)c(CNC(=O)c2cc(C)c3c(c2C)OC(C)([C@H]2CC[C@H](N(C)C)CC2)O3)c(=O)[nH]1 (relative stereo) [Example 47, 2-[trans-4-(Dimethylamino)cyclohexyl]-N-[(4,6-dimethyl-2-oxo-1,2-dihydropyridin-3-yl)methyl]-2,4,7-trimethyl-1,3-benzodioxole-5-carboxamide]
IC50 [1]: 1.4 nM | IC50 (PRC2-EZH1 (WT EZH1)): 22 nM | IC50 (PRC2-EZH2 (WT EZH2)): 10 nM

Cc1cc(C)c(CNC(=O)c2cc(Br)c3c(c2C)OC(C)(C2CCOCC2)O3)c(=O)[nH]1 (stereo not drawn) [Example 2, 7-Bromo-N-[(4,6-dimethyl-2-oxo-1,2-dihydropyridin-3-yl)methyl]-2,4-dimethyl-2-(tetrahydropyran-4-yl)-1,3-benzodioxole-5-carboxamide]
IC50 [1]: 9 nM | IC50 (PRC2-EZH2 (WT EZH2)): 22 nM

CCCN1CCC([C@@]2(C)Oc3c(Br)cc(C(=O)NCc4c(C)cc(C)[nH]c4=O)c(C)c3O2)CC1 [Example 9, (2R)-7-Bromo-N-[(4,6-dimethyl-2-oxo-1,2-dihydropyridin-3-yl)methyl]-2,4-dimethyl-2-(1-propyl-4-piperidyl)-1,3-benzodioxole-5-carboxamide]
IC50 [1]: 13 nM | IC50 (PRC2-EZH2 (WT EZH2)): 11 nM

CCS(=O)(=O)N1CCC([C@@]2(C)Oc3c(Br)cc(C(=O)NCc4c(C)cc(C)[nH]c4=O)c(C)c3O2)CC1 [Example 11, (2R)-7-Bromo-N-[(4,6-dimethyl-2-oxo-1,2-dihydropyridin-3-yl)methyl]-2-(1-ethylsulfonyl-4-piperidyl)-2,4-dimethyl-1,3-benzodioxole-5-carboxamide]
IC50 [1]: 3.7 nM | IC50 (PRC2-EZH2 (WT EZH2)): 9.1 nM

Cc1cc(C)c(CNC(=O)c2cc(Br)c3c(c2C)OC(C)([C@@H]2CC[C@@H](N(C)C)CO2)O3)c(=O)[nH]1 (stereo partly drawn) [Example 22, 7-Bromo-2-[(2S,5R)-5-(dimethylamino)tetrahydropyran-2-yl]-N-[(4,6-dimethyl-2-oxo-1,2-dihydropyridin-3-yl)methyl]-2,4-dimethyl-1,3-benzodioxole-5-carboxamide]
IC50 [1]: 1.6 nM | IC50 (PRC2-EZH2 (WT EZH2)): 14 nM
